According to ChEMBL document CHEMBL1150654, “New marine diterpenoids from the Okinawan soft coral Clavularia koellikeri” (J Nat Prod, 2002):
In brackets after ≈: the same amount, converted by molar mass.

Tests used:
Assay type in all cases: functional, cell-based
[1] = Cytotoxicity against human HBC5 cells after 48 hrs by sulforhodamine B assay; details: HBC5, 48 h
[2] = system: MKN-45; assay: Cytotoxicity against human MKN45 cells after 48 hrs by sulforhodamine B assay; details: MKN-45, 48 h
[3] = system: St-4; assay: Cytotoxicity against human St-4 cells after 48 hrs by sulforhodamine B assay; details: St-4, 48 h
[4] = system: U-251; assay: Cytotoxicity against human U251 cells after 48 hrs by sulforhodamine B assay; details: U-251, 48 h
[5] = system: SNB-78; assay: Cytotoxicity against human SNB78 cells after 48 hrs by sulforhodamine B assay; details: SNB-78, 48 h
[6] = system: MDA-MB-231; assay: Cytotoxicity against human MDA-MB-231 cells after 48 hrs by sulforhodamine B assay; details: MDA-MB-231, 48 h
[7] = system: KM12; assay: Cytotoxicity against human KM12 cells after 48 hrs by sulforhodamine B assay; details: KM12, 48 h
[8] = system: MKN-28; assay: Cytotoxicity against human MKN28 cells after 48 hrs by sulforhodamine B assay; details: MKN-28, 48 h
[9] = system: ACHN; assay: Cytotoxicity against human ACHN cells after 48 hrs by sulforhodamine B assay
[10] = system: OVCAR-3; assay: Cytotoxicity against human OVCAR-3 cells after 48 hrs by sulforhodamine B assay; details: OVCAR-3, 48 h
[11] = system: HT-29; assay: Cytotoxicity against human HT-29 cells after 48 hrs by sulforhodamine B assay; details: HT-29, 48 h
[12] = system: DU-145; assay: Cytotoxicity against human DU145 cells after 48 hrs by sulforhodamine B assay; details: DU-145, 48 h
[13] = system: LOX IMVI; assay: Cytotoxicity against human LOXIMVI cells after 48 hrs by sulforhodamine B assay
[14] = system: DMS-114; assay: Cytotoxicity against human DMS114 cells after 48 hrs by sulforhodamine B assay; details: DMS-114, 48 h
[15] = system: SF-268; assay: Cytotoxicity against human SF268 cells after 48 hrs by sulforhodamine B assay; details: SF-268, 48 h
[16] = system: SF-295; assay: Cytotoxicity against human SF295 cells after 48 hrs by sulforhodamine B assay; details: SF-295, 48 h
[17] = system: MKN-74; assay: Cytotoxicity against human MKN74 cells after 48 hrs by sulforhodamine B assay; details: MKN-74, 48 h
[18] = Cytotoxicity against human MKN1 cells after 48 hrs by sulforhodamine B assay; details: MKN-1, 48 h
[19] = system: NCI-H460; assay: Cytotoxicity against human NCI-H460 cells after 48 hrs by sulforhodamine B assay; details: NCI-H460, 48 h
[20] = Cytotoxicity against human HBC4 cells after 48 hrs by sulforhodamine B assay; details: HBC4, 48 h
[21] = system: HCT-15; assay: Cytotoxicity against human HCT15 cells after 48 hrs by sulforhodamine B assay; details: HCT-15, 48 h
[22] = system: NCI-H522; assay: Cytotoxicity against human NCI-H522 cells after 48 hrs by sulforhodamine B assay; details: NCI-H522, 48 h
[23] = system: HCT-116; assay: Cytotoxicity against human HCT116 cells after 48 hrs by sulforhodamine B assay; details: HCT-116, 48 h
[24] = system: HCC 2998; assay: Cytotoxicity against human HCC2998 cells after 48 hrs by sulforhodamine B assay; details: HCC 2998, 48 h
[25] = system: SF-539; assay: Cytotoxicity against human SF539 cells after 48 hrs by sulforhodamine B assay; details: SF-539, 48 h
[26] = system: OVCAR-4; assay: Cytotoxicity against human OVCAR4 cells after 48 hrs by sulforhodamine B assay; details: OVCAR-4, 48 h
[27] = system: MCF7; assay: Cytotoxicity against human MCF7 cells after 48 hrs by sulforhodamine B assay; details: MCF7, 48 h
[28] = system: SNB-75; assay: Cytotoxicity against human SNB75 cells after 48 hrs by sulforhodamine B assay; details: SNB-75, 48 h
[29] = system: OVCAR-5; assay: Cytotoxicity against human OVCAR5 cells after 48 hrs by sulforhodamine B assay; details: OVCAR-5, 48 h
[30] = system: PC-3; assay: Cytotoxicity against human PC3 cells after 48 hrs by sulforhodamine B assay; details: PC-3, 48 h
[31] = system: NCI-H226; assay: Cytotoxicity against human NCI-H226 cells after 48 hrs by sulforhodamine B assay; details: NCI-H226, 48 h
[32] = system: A549; assay: Cytotoxicity against human A549 cells after 48 hrs by sulforhodamine B assay; details: A549, 48 h
[33] = system: SK-OV-3; assay: Cytotoxicity against human SKOV3 cells after 48 hrs by sulforhodamine B assay; details: SK-OV-3, 48 h
[34] = Cytotoxicity against human RXF631L cells after 48 hrs by sulforhodamine B assay; details: RXF 631, 48 h
[35] = system: DMS-273; assay: Cytotoxicity against human DMS273 cells after 48 hrs by sulforhodamine B assay; details: DMS-273, 48 h
[36] = system: OVCAR-8; assay: Cytotoxicity against human OVCAR8 cells after 48 hrs by sulforhodamine B assay; details: OVCAR-8, 48 h
[37] = system: MKN-7; assay: Cytotoxicity against human MKN7 cells after 48 hrs by sulforhodamine B assay; details: MKN-7, 48 h
[38] = Cytotoxicity against human BSY1 cells after 48 hrs by sulforhodamine B assay; details: BSY-1, 48 h
[39] = system: NCI-H23; assay: Cytotoxicity against human NCI-H23 cells after 48 hrs by sulforhodamine B assay; details: NCI-H23, 48 h

Which IC50 [1] does the source give for `C=C1C(=O)O[C@H]2/C=C(\C)CC/C=C(\C)CC/C=C(\C)CC[C@H]12` here?
The IC50 was 2.13 µg/mL (≈ 7.09 µM).

What about the IC50 [2] of the same compound?
The IC50 was 3 µg/mL (≈ 9.99 µM).

What about the IC50 [3] of the same compound?
Its IC50 is 3.9 µg/mL (≈ 13 µM).

And the IC50 [4]?
Its IC50 is 4.2 µg/mL (≈ 14 µM).

And the IC50 [5]?
The IC50 was 1.59 µg/mL (≈ 5.29 µM).

What about the IC50 [6] of the same compound?
The IC50 was 4.5 µg/mL (≈ 15 µM).

And the IC50 [7]?
The IC50 was 1.32 µg/mL (≈ 4.39 µM).

And the IC50 [8]?
The IC50 was 0.96 µg/mL (≈ 3.2 µM).

What about the IC50 [9] of the same compound?
The IC50 was 3 µg/mL (≈ 9.99 µM).

And the IC50 [10]?
Its IC50 is 1.14 µg/mL (≈ 3.79 µM).

And the IC50 [11]?
Its IC50 is 1.47 µg/mL (≈ 4.89 µM).

What about the IC50 [12] of the same compound?
The IC50 was 3.3 µg/mL (≈ 11 µM).

What about the IC50 [13] of the same compound?
Its IC50 is 0.72 µg/mL (≈ 2.4 µM).

And the IC50 [14]?
The IC50 was 3.6 µg/mL (≈ 12 µM).

What about the IC50 [15] of the same compound?
The IC50 was 3 µg/mL (≈ 9.99 µM).

And the IC50 [16]?
The IC50 was 3.9 µg/mL (≈ 13 µM).

And the IC50 [17]?
Its IC50 is 0.81 µg/mL (≈ 2.7 µM).

And the IC50 [18]?
The IC50 was 1.2 µg/mL (≈ 3.99 µM).

What about the IC50 [19] of the same compound?
Its IC50 is 3.3 µg/mL (≈ 11 µM).

And the IC50 [20]?
Its IC50 is 1.62 µg/mL (≈ 5.39 µM).

What about the IC50 [21] of the same compound?
Its IC50 is 2.01 µg/mL (≈ 6.69 µM).

What about the IC50 [22] of the same compound?
The IC50 was 0.66 µg/mL (≈ 2.2 µM).

What about the IC50 [23] of the same compound?
The IC50 was 1.17 µg/mL (≈ 3.89 µM).

What about the IC50 [24] of the same compound?
The IC50 was 1.29 µg/mL (≈ 4.29 µM).

And the IC50 [25]?
The IC50 was 1.56 µg/mL (≈ 5.19 µM).

What about the IC50 [26] of the same compound?
The IC50 was 2.25 µg/mL (≈ 7.49 µM).

What about the IC50 [27] of the same compound?
The IC50 was 0.9 µg/mL (≈ 3 µM).

And the IC50 [28]?
Its IC50 is 3.3 µg/mL (≈ 11 µM).

What about the IC50 [29] of the same compound?
Its IC50 is 2.31 µg/mL (≈ 7.69 µM).

And the IC50 [30]?
Its IC50 is 1.11 µg/mL (≈ 3.69 µM).

What about the IC50 [31] of the same compound?
The IC50 was 1.14 µg/mL (≈ 3.79 µM).

What about the IC50 [32] of the same compound?
The IC50 was 1.26 µg/mL (≈ 4.19 µM).

And the IC50 [33]?
The IC50 was 6.6 µg/mL (≈ 22 µM).

What about the IC50 [34] of the same compound?
Its IC50 is 4.8 µg/mL (≈ 16 µM).

And the IC50 [35]?
Its IC50 is 1.11 µg/mL (≈ 3.69 µM).

What about the IC50 [36] of the same compound?
Its IC50 is 0.93 µg/mL (≈ 3.1 µM).

What about the IC50 [37] of the same compound?
Its IC50 is 0.96 µg/mL (≈ 3.2 µM).

And the IC50 [38]?
Its IC50 is 1.35 µg/mL (≈ 4.49 µM).

What about the IC50 [39] of the same compound?
Its IC50 is 3.6 µg/mL (≈ 12 µM).
